Experimental data: patent US20100069297A1, “Selective Inhibition of TLR4 Signaling” (priority 2005, published 2010)

Tests used:
Assay type in all cases: cell-based, mouse
[1] = test system: TLR4 signaling (IRF-3 dimerization); experiment: LPS-induced dimerization of IRF-3, native PAGE; settings: 100 ng/ml LPS, 1.5 hr
Description: (§1) FIG. 3. Effect of blocking peptides on activation of IRF-3 and IRF-1. […] Primary mouse macrophages were stimulated with 100 ng/ml of LPS. Seventeen μg of total protein was loaded per lane of the native gel. Other details are as described in the legend for FIG. 1.
Native PAGE for detection of IRF-3 activation was performed with minor modifications (Iwamura et al., 2001, Genes Cells 6, 375). One×10^7 thioglycollate-elicited cells were plated into a 6 cm dish and washed with PBS to remove non-adherent cells. Primary macrophages were stimulated with 100 ng/ml of LPS for 1.5 hr and lysed in buffer containing 50 mM TRIS-HCl pH 7.5, 150 mM NaCl, 1 mM EDTA, 1% NP-40, 1 mM sodium orthovanadate and 1× Complete protease inhibitor cocktail (Roche, Mannheim, Germany). Lysates were mixed with native lysis buffer (Bio-Rad, Hercules, Calif.) supplemented with 1% deoxycholate. Fifteen to 20 μg protein per lane was electrophoresed on a non-reducing gel and immunoblotted. IRF-3 dimers and monomers were detected using rabbit anti-IRF-3 antibody (Zymed Laboratories) by Western analysis.
Interferon Regulatory Factors (IRFs) were first identified as important transcriptional mediators of the antiviral immune response (reviewed in Taniguchi et al., 2001, Annu. Rev. Immunol. 19, 623). Later, it was recognized that this family of transcription factors plays an essential role in signal transduction mediated by different TLRs. IRF-1 is regulated transcriptionally by signaling from different TLRs, as well as by cytokines induced by TLR engagement (e.g., IL-1, TNF, and IFN-β) (Fujita et al., 1989, Proc. Natl. Acad. Sci. USA 86, 9936). In contrast, IRF-3 is constitutively expressed in many cell types (Au et al., 1995, Proc. Natl. Acad. Sci. USA 92, 11675). Upon stimulation through TLR4 or TLR3, IRF-3 is phosphorylated at multiple sites in its C-terminus, and this modification enables it to dimerize and translocate to the nucleus where it targets IRF-3-responsive genes (Kawai et al., 2001, supra; Lin et al., 1999, Mol. Cell. Biol. 19, 2465).

[2] = test system: TLR4 signaling (IRF-1 protein); experiment: LPS-induced upregulation of IRF-1 protein, SDS-PAGE/Western; settings: 100 ng/ml LPS, 1.5 h
Description: as §1
(§2) SDS-PAGE and Western blot analysis were performed as described previously (Medvedev et al., 2001, J. Immunol. 167, 2257) with minor modifications. Antibodies for detection of activated MAPKs (pERK, pJNK and pP38) were purchased from Cell Signaling Technology (Beverly, Mass.). IRF-1 was detected using a rabbit polyclonal antibody from Santa-Cruz (Santa Cruz, Calif.). Antibody for detection of tyrosine-701 phosphorylated STAT1 was purchased from Zymed Laboratories (San Francisco, Calif.).
Importantly, MyD88 knockout macrophages are capable of inducing IRF-1 mRNA (Yamamoto et al., 2003, supra).

[3] = test system: TLR4 signaling (LPS-induced IL-1β, MIP-1β, IFN-β, RANTES mRNA); experiment: LPS-induced gene expression in primary murine macrophages, real-time PCR
Description: FIG. 1. Effect of blocking peptides on the cytokine induction by LPS. Thioglycollate-elicited primary murine macrophages were preincubated in the presence of 40 μMof BP for one hour before stimulation with 10 ng/ml of LPS. (A) Quantitative real-time PCR analysis of gene expression. (B) Secretion of IL-1β and IL-6. Concentration of the cytokines was measured after overnight incubation of the cells in the presence of LPS and the peptides. (C) Sensitivity of the LPS-stimulated expression of IFN-β and IL-1β mRNA to varying concentrations of TRAM and MyD88 BP. Total mRNA was isolated 1 hour after LPS stimulation (A and C). *p<0.05; **p<0.01.
FIG. 6. Effect of mutant TRAM BB loop peptides on LPS-induced activation of IL1-β and IFN-β mRNA. Details of the experiments are as described in the legend for FIG. 1, except for the cells were preincubated with peptides only for 30 minutes.
C3H/OuJ mice were purchased from the Jackson Laboratory (Bar Harbor, Me.). Thioglycollate-elicited peritoneal macrophages were harvested and cultured in the presence of E. coli K235 LPS or Pam3Cys as described previously (Salkowski et al., 1999, J. Immunol. 164, 1529).
(§3) Total cellular RNA was extracted from macrophage cultures as described elsewhere and reversed transcribed using AMV Reverse Transcriptase (Promega, Madison, Wis.) and poly-T priming as recommended by the manufacturer. The resulting cDNA was quantified by real time PCR using SYBR Green PCR Master Mix (Applied Biosystems) and ABI Prism 7900HT cycler. Primers for detection of IL-1β, IFN-β, MIP-1β, […]RANTES, and HPRT mRNAs were designed using the Primer Express 2.0 program (Applied Biosystems). Relative gene expression was calculated using ΔCt method with HPRT as a housekeeping gene (1.8̂(CtHPRT−CtGene)) Statistical analysis was performed by one way ANOVA with repeated measures, followed by Dunnett's multiple comparison post hoc test with p≦0.05 chosen as the level of significance.
Mice with targeted mutations in MyD88 (Kawai et al., 2001, supra; Toshchakov et al., 2002, supra) or TIRAP (Yamamoto et al., 2002, Nature 420, 324) retain the capacity to signal through the MyD88-independent pathway. […] Therefore, the first question we sought to address experimentally is whether interactions of the BB-loops of the TIR domains of these adapters affect protein interactions leading to gene expression. To this end, we designed cell permeable peptides whose sequences correspond to the BB-loops of each adapter molecule and measured the ability of each BP to interfere with the induction of immediate response genes induced via MyD88-dependent and independent pathways. […] All BB-loop-containing peptides exerted an inhibitory effect on LPS-induced expression of MyD88-dependent IL-1β and […], as well as MyD88-independent IFN-β and RANTES mRNA, as measured by real-time PCR (FIG. 1A).

[4] = test system: TLR4 signaling (LPS-induced STAT-1 phosphorylation); experiment: LPS-induced phosphorylation of STAT-1, Western blot; settings: 40 μM BP
Description: (§4) FIG. 2. Effect of blocking peptides on the LPS-stimulated activation of MAPKs and Tyr701 STAT-1. Ten μg of total protein was loaded per lane. A representative blot of three separate experiments is shown. Other details are given in the Materials and Methods section and legend for FIG. 1.
as §2

[5] = test system: TLR4 signaling (LPS-induced phosphorylation of ERK, JNK, p38); experiment: LPS-stimulated activation of MAPKs (pERK, pJNK, pP38), Western blot; settings: 40 μM, 1 h preincubation, LPS 10 ng/ml
Description: as §4
(§5) FIG. 4. Comparative effect of BPs on TLR2-vs. TLR4-mediated activation of MAPKs (A) and IL-1β mRNA expression (B). For Western blot analysis, 4.5 x10^6 primary macrophages were preincubated without or with 40 μM BP and stimulated for 30 min with LPS (10 ng/ml) or Pam3Cys (P3C; 150 ng/ml). The results shown are a representative blot of three separate experiments. Experimental details for FIG. 4B are the same as reported in the legend to FIG. 1A.
FIG. 5. Effect of mutated TRAM BB loop peptides on LPS-induced activation of ERK. Details of the experiment are as in legend for FIG. 4, except for the cells were preincubated with peptides only for 30 minutes.
as §2
Using antibodies specific for the phosphorylated (activated) forms of JNK, ERK, and p38, we next sought to examine the effect of BB-loop-containing inhibitory peptides on LPS-stimulated activation of MAPKs. LPS induces quick and transient activation of MAPKs in primary macrophages (FIG. 2A) that was not affected by the addition of CP. […] The TIRAP BP was the weakest BP; all MAPKs were activated in the presence of it, although to a lesser extent when compared to CP.

[6] = test system: TLR2 signaling (Pam3Cys-induced IL-1β mRNA); experiment: Pam3Cys-induced cytokine mRNA expression, real-time PCR; settings: 40 μM, Pam3Cys
Description: as §5, §3
Similar to their effect on activation of MAPKs, BPs were much weaker inhibitors with respect to Pam3Cys- vs. LPS-induced expression of IL-1β mRNA.

## RQIKIWFQNRRMKWKKVSDRDVLPGTCVWS (MyD88 blocking peptide) [MyD88-BP]
[1]
  inhibition of LPS-induced dimerization of IRF-3: significantly inhibited
[2]
  effect on LPS-induced upregulation of IRF-1 protein: strongest inhibitors
[3]; 40 μM BP, 1 h preincubation, 10 ng/ml LPS, mRNA 1 h after LPS
  inhibitory effect on LPS-induced expression of IL-1β, MIP-1β, IFN-β and RANTES mRNA: comparable or only slightly less inhibitory
[3]; 40 μM, LPS 10 ng/ml
  IL-1β mRNA expression in LPS-stimulated cells, of the level detected in the presence of the CP: < 5%
[4]
  inhibition of LPS-induced Tyr701 phosphorylation of STAT-1: highly effective
[5]
  effect on LPS-induced activation (phosphorylation) of MAPKs (ERK, JNK): strongly blocked
[6]
  IL-1β gene expression in Pam3Cys-stimulated cells, of control levels: approximately 25%
  effect on Pam3Cys-induced expression of IL-1β mRNA: statistically significant inhibitory effect
